The source of these data is PubChem BioAssay (NCI).

Among the test systems are OVCAR-4 ovarian; NCI-H460 lung; PC-3 prostate; A549 NSCLC; SF-539 CNS; MDA-MB-435; 786-0 renal; SK-MEL-28 melanoma; MOLT-4 leukemia; SK-OV-3 ovarian.
Holding throughout (assay): inhibition of tumour cell growth, NCI panel, 48 h

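Step 1: Grow cells in 96-well plates. Step 2: Expose to compound for 48 hours at 5 concentrations. Step 3: Interpolate endpoints linearly; if unreached, use highest concentration. GI50 is the concentration that inhibits growth by half. TGI: concentration producing complete growth inhibition.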

For the compound `O=C(NCCCl)NCCN1c2nc3ccccc3cc2Sc2cc3ccccc3nc21`, the GI50 in the assay with OVCAR-4 ovarian was 0.9 µM; in the assay on NCI-H460 lung, 0.475 µM; with PC-3 prostate it was 0.719 µM; in the assay with A549 NSCLC, 4.64 µM; with SF-539 CNS, 3.14 µM; in the assay with MDA-MB-435, 1.57 µM. The GI50 with 786-0 renal was 1.55 µM; in the assay with SK-MEL-28 melanoma, 2.8 µM; with MOLT-4 leukemia, 0.861 µM; in the assay with SK-OV-3 ovarian it was 4.41 µM. In addition, the TGI with OVCAR-4 ovarian was > 23.4 µM; in the assay with NCI-H460 lung it was 1.94 µM; in the assay with PC-3 prostate, 20.1 µM; with A549 NSCLC, 23.1 µM; with SF-539 CNS, 17.7 µM; in the assay with MDA-MB-435, 11.1 µM. Moreover, the TGI in the assay with 786-0 renal is 4.89 µM; in the assay on SK-MEL-28 melanoma, 8.53 µM; in the assay on SK-OV-3 ovarian it was > 44.3 µM.
As for `CC(=O)OC1CC2C(C)(C)CCC[C@]2(C)C2=C1C(O)=C(C(C)C)C(=O)C2=O` (some centres undefined), the GI50 in the assay on OVCAR-4 ovarian is 0.8 µM; in the assay on NCI-H460 lung it was 0.354 µM; in the assay with PC-3 prostate it was 0.731 µM; in the assay on A549 NSCLC it was 0.521 µM; in the assay with SF-539 CNS it was 0.723 µM; in the assay with MDA-MB-435, 0.335 µM. For the same compound, the GI50 in the assay with 786-0 renal is 0.813 µM; with SK-MEL-28 melanoma, 0.68 µM; in the assay on MOLT-4 leukemia, 1.4 µM; in the assay on SK-OV-3 ovarian, 2.59 µM. The TGI in the assay with OVCAR-4 ovarian came out at 7.07 µM; in the assay with NCI-H460 lung, 1.69 µM; with PC-3 prostate it was 5.12 µM; in the assay with A549 NSCLC it was 3.01 µM; in the assay on SF-539 CNS, 3.83 µM; in the assay on MDA-MB-435, 1.72 µM. Moreover, the TGI was 2.91 µM in the assay on 786-0 renal, 2.16 µM with SK-MEL-28 melanoma, > 30.8 µM in the assay with MOLT-4 leukemia and > 28.4 µM in the assay with SK-OV-3 ovarian.
As to `C[C@]12CCCN1CC1=NNC(=O)c3cc(F)cc4[nH]c2c1c34`, the GI50 was 24.9 µM in the assay on OVCAR-4 ovarian; 11.5 µM in the assay with NCI-H460 lung; 20.7 µM in the assay on PC-3 prostate; 22.4 µM in the assay on A549 NSCLC; 17.6 µM in the assay with SF-539 CNS; 23.7 µM in the assay on MDA-MB-435. Moreover, the GI50 is 26.2 µM in the assay with 786-0 renal, 24.9 µM in the assay with SK-MEL-28 melanoma, 22.3 µM in the assay on MOLT-4 leukemia and 25.9 µM in the assay on SK-OV-3 ovarian. In addition, the TGI in the assay on OVCAR-4 ovarian is > 100 µM; with NCI-H460 lung, > 100 µM; in the assay on PC-3 prostate, > 100 µM; in the assay with A549 NSCLC it was > 100 µM; with SF-539 CNS, 57.7 µM; with MDA-MB-435, 80.6 µM. Further, the TGI in the assay with 786-0 renal was > 100 µM; in the assay with SK-MEL-28 melanoma, 87.2 µM; in the assay with MOLT-4 leukemia it was > 100 µM; with SK-OV-3 ovarian, > 100 µM.
Take `CCOC(=O)C1=C(C)NC(C)=C(C(=O)OCCNC(=O)c2ccc(N=[N+]=[N-])cc2)C1c1ccccc1C(F)(F)F` (centres undefined): the TGI is 21.5 µM in the assay on OVCAR-4 ovarian; 21.5 µM with NCI-H460 lung; 21.5 µM with PC-3 prostate; 21.5 µM in the assay on A549 NSCLC; > 31.6 µM in the assay on SF-539 CNS; 20.5 µM in the assay on MDA-MB-435. For the same compound, the TGI with 786-0 renal was determined as 21.5 µM; in the assay with SK-MEL-28 melanoma, 21.5 µM; with MOLT-4 leukemia, 13.5 µM; with SK-OV-3 ovarian it was 21.5 µM.
